Consider 48 molecules from the Biogen ADME set (Fang et al. 2023).

The conditions of this data set: for aqueous solubility: pH 6.8.

Converted amounts (≈) assume the structure as drawn.

As usually defined, the aqueous solubility is the concentration that dissolves in the medium under given conditions. Read a low aqueous solubility as a poorly soluble substance.

In the case of `Cc1ccc(-c2ccc(=O)n(Cc3ccncc3)n2)cc1`, the MDR1-MDCK efflux ratio was 0.617; the intrinsic clearance, human liver microsomes turned out to be 41.7 mL/min/kg; the intrinsic clearance, rat liver microsomes was determined as 2400 mL/min/kg; the aqueous solubility is 42.6 µg/mL (≈ 154 µM).
The like results for `CC(=O)NC1CCN(Cc2cccc(-c3cccnc3)c2)CC1` were, in that order, 13.6, 6.04 mL/min/kg, 42.3 mL/min/kg and 25.8 µg/mL (≈ 83.4 µM).
With `Cc1cccc(NC(=O)CN(C)Cc2nc3ccc(Cl)cc3c(=O)[nH]2)c1C`, the MDR1-MDCK efflux ratio came to 12.5; the intrinsic clearance, human liver microsomes is 101 mL/min/kg; the intrinsic clearance, rat liver microsomes stood at 1270 mL/min/kg.
For the molecule `COc1ccc(Nc2nc(N)nc(CN3CCN(Cc4ccccc4)CC3)n2)cc1`, the MDR1-MDCK efflux ratio was 10.9; the intrinsic clearance, human liver microsomes worked out at 25 mL/min/kg; the intrinsic clearance, rat liver microsomes was 594 mL/min/kg; the aqueous solubility is 65.1 µg/mL (≈ 161 µM).
For `CCCN(C(=O)c1c(CC)noc1C)C1Cc2ccccc2C1`, in that order: 0.947, 182 mL/min/kg, 2380 mL/min/kg and 37.3 µg/mL (≈ 119 µM).
Consider `CC(=O)NC[C@H]1C[C@]2(C)[C@@H](CCCC[C@]2(C)O)N1CC1(O)CCOCC1`, for which the MDR1-MDCK efflux ratio came out at 9.46; the intrinsic clearance, human liver microsomes came out at 8.98 mL/min/kg; the intrinsic clearance, rat liver microsomes was determined as 41.2 mL/min/kg.
For the molecule `O=c1cc2c(n[nH]1)-c1cnc(N3CCCC3)nc1CC2`, the MDR1-MDCK efflux ratio was found to be 0.748; the intrinsic clearance, human liver microsomes amounted to 6.66 mL/min/kg; the intrinsic clearance, rat liver microsomes was 103 mL/min/kg.
On to `Cc1ccccc1CNC(=O)c1ccc(-n2ccnc2)nc1`, for which the MDR1-MDCK efflux ratio was 0.867; the intrinsic clearance, human liver microsomes is no more than 4.74 mL/min/kg; the intrinsic clearance, rat liver microsomes turned out to be 35.3 mL/min/kg; the aqueous solubility was 43.6 µg/mL (≈ 149 µM).
The molecule `NC1(c2ccc(-c3nc4ccn5c(=O)[nH]nc5c4cc3-c3ccccc3)cc2)CCC1` yielded an intrinsic clearance, human liver microsomes of 14.7 mL/min/kg and an intrinsic clearance, rat liver microsomes of 17.1 mL/min/kg.
Regarding `CN(C)c1ccncc1CN1CCN(c2ccc(C(N)=O)cc2)CC1`, the MDR1-MDCK efflux ratio was found to be 18.8; the intrinsic clearance, human liver microsomes was no more than 4.74 mL/min/kg; the intrinsic clearance, rat liver microsomes was no more than 10.7 mL/min/kg.
Turning to `CC(C)[C@H](O)C(=O)N[C@@H](C)C(=O)N[C@@H]1C(=O)N(C)CCc2ccccc21`, the intrinsic clearance, human liver microsomes turned out to be 6.33 mL/min/kg and the intrinsic clearance, rat liver microsomes came to 14.2 mL/min/kg.
For `CCN(Cc1ccccc1)C(=O)c1ccc(O)cc1O`, the MDR1-MDCK efflux ratio is 0.83; the intrinsic clearance, human liver microsomes was no more than 4.74 mL/min/kg; the intrinsic clearance, rat liver microsomes turned out to be 726 mL/min/kg; the aqueous solubility is 46.7 µg/mL (≈ 172 µM).
In the case of `CO[C@H]1CC[C@@H](C(=O)c2ccc3nc4c(cc3c2)CCCO4)CC1`, the MDR1-MDCK efflux ratio worked out at 0.805; the intrinsic clearance, human liver microsomes was 29.4 mL/min/kg; the intrinsic clearance, rat liver microsomes came to 552 mL/min/kg; the aqueous solubility was 44.5 µg/mL (≈ 137 µM).
For the molecule `CN(Cc1ccc(N)nc1)c1ncccn1`, the MDR1-MDCK efflux ratio amounted to 0.62; the intrinsic clearance, human liver microsomes was no more than 4.74 mL/min/kg; the intrinsic clearance, rat liver microsomes was found to be 22.8 mL/min/kg; the aqueous solubility stood at 28.5 µg/mL (≈ 132 µM).
For the molecule `Cc1nc2cc(C(=O)NC34CCCC3NCC4)ccc2c(=O)[nH]1` (centres undefined), the MDR1-MDCK efflux ratio came to 0.754; the fraction unbound, human plasma was determined as 0.735; the intrinsic clearance, human liver microsomes is no more than 4.74 mL/min/kg.
As to `NC[C@H]1CC[C@@H](C(=O)Nc2ccc3[nH]ncc3c2)O1`, the MDR1-MDCK efflux ratio was 1.14; the fraction unbound, human plasma amounted to 0.959; the intrinsic clearance, human liver microsomes came out at 17.7 mL/min/kg.
For `CSCC(=O)Nc1nc(-c2ccc(C3CCCCC3)cc2)cs1`, the MDR1-MDCK efflux ratio was found to be 0.695 and the aqueous solubility turned out to be 0.37 µg/mL (≈ 1.07 µM).
As for `CC(C)Cc1nn(C)c(=O)c2c(SCCCO)n(Cc3cccc4ccccc34)cc12`, the MDR1-MDCK efflux ratio amounted to 1.82; the intrinsic clearance, human liver microsomes turned out to be 273 mL/min/kg; the intrinsic clearance, rat liver microsomes stood at 2040 mL/min/kg.
In the case of `O=C(O)c1c2ccccc2nn1Cc1ccccc1`, the MDR1-MDCK efflux ratio was 1.62; the intrinsic clearance, human liver microsomes was no more than 4.74 mL/min/kg; the intrinsic clearance, rat liver microsomes was no more than 10.7 mL/min/kg; the aqueous solubility came to 37.2 µg/mL (≈ 147 µM).
`CCCCCCCCc1ccc(CCC(N)(CO)CO)cc1` had an intrinsic clearance, human liver microsomes of 7.6 mL/min/kg and an intrinsic clearance, rat liver microsomes of 17 mL/min/kg.
As to `C1CCN(c2nc(NC3CC3)nc(N3CCCCC3)n2)CC1`, the MDR1-MDCK efflux ratio is 0.301 and the aqueous solubility was found to be 0.62 µg/mL (≈ 2.05 µM).
For `Cc1nnc(NCCc2ccc3c(c2)OCO3)c(C#N)c1C`, the MDR1-MDCK efflux ratio came to 0.636; the intrinsic clearance, human liver microsomes was determined as 52.1 mL/min/kg; the intrinsic clearance, rat liver microsomes worked out at 935 mL/min/kg; the aqueous solubility worked out at 22.4 µg/mL (≈ 75.6 µM).
For `c1cc2cc[nH]c2c(CC2CN(C3CCCC3)C2)n1`, the MDR1-MDCK efflux ratio turned out to be 3.21; the intrinsic clearance, human liver microsomes was no more than 4.74 mL/min/kg; the intrinsic clearance, rat liver microsomes turned out to be 80.5 mL/min/kg; the aqueous solubility was 18.6 µg/mL (≈ 72.7 µM).
`O=C(NC[C@]1(O)CCN(Cc2cccs2)C[C@H]1O)c1c[nH]cn1` gave an intrinsic clearance, human liver microsomes of no more than 4.74 mL/min/kg and an intrinsic clearance, rat liver microsomes of no more than 10.7 mL/min/kg.
For `COc1ccc(-c2cc(C(C)(C)C)nc(-c3ncccn3)n2)cc1`, the MDR1-MDCK efflux ratio worked out at 1.22; the intrinsic clearance, human liver microsomes was 21.6 mL/min/kg; the intrinsic clearance, rat liver microsomes turned out to be 75.5 mL/min/kg.
Regarding `Cc1cc(N2CCN(C(=O)OC(C)(C)C)[C@H](C)C2)ncn1`, the MDR1-MDCK efflux ratio stood at 0.766; the intrinsic clearance, human liver microsomes amounted to 9.46 mL/min/kg; the intrinsic clearance, rat liver microsomes was 124 mL/min/kg; the aqueous solubility came out at 51.7 µg/mL (≈ 177 µM).
With `CCN(C(=O)N1CCC(CC(=O)N2CCN(C)CC2)CC1)C(C)C`, the MDR1-MDCK efflux ratio was 16.2; the intrinsic clearance, human liver microsomes turned out to be 23.9 mL/min/kg; the intrinsic clearance, rat liver microsomes is 54.7 mL/min/kg; the aqueous solubility was found to be 81.3 µg/mL (≈ 240 µM).
On to `Cn1cc(Nc2nc(N)nc(-c3cccc(-n4ccc5cc(C6CC6)cc(F)c5c4=O)c3CO)n2)cn1`, for which the MDR1-MDCK efflux ratio worked out at 24.3; the fraction unbound, human plasma stood at 0.0709; the fraction unbound, rat plasma is 0.0381; the intrinsic clearance, human liver microsomes is no more than 4.74 mL/min/kg. The molecule also displayed an intrinsic clearance, rat liver microsomes of 37.9 mL/min/kg.
For the molecule `CC(=O)c1ccc(OCCCCN2CCCC2)cc1`, the MDR1-MDCK efflux ratio worked out at 0.895; the intrinsic clearance, human liver microsomes is no more than 4.74 mL/min/kg; the intrinsic clearance, rat liver microsomes was determined as 453 mL/min/kg; the aqueous solubility was found to be 36.3 µg/mL (≈ 139 µM).
For the molecule `Cc1ccc(-c2nnc([C@H]3CCN(Cc4cc5ccccc5o4)C3)o2)cc1`, the MDR1-MDCK efflux ratio turned out to be 0.679; the intrinsic clearance, human liver microsomes was 49.2 mL/min/kg; the intrinsic clearance, rat liver microsomes was found to be 663 mL/min/kg; the aqueous solubility came out at 15.9 µg/mL (≈ 44.2 µM).
With `CCN(Cc1nc2cc(Cl)ccc2c(=O)[nH]1)C(=O)COc1ccccc1Cc1ccccc1`, the intrinsic clearance, human liver microsomes turned out to be 225 mL/min/kg; the intrinsic clearance, rat liver microsomes worked out at 1470 mL/min/kg; the aqueous solubility turned out to be 1.22 µg/mL (≈ 2.64 µM).
As for `CC(C)c1nc(O)c2nnn(C[C@@H]3CCCN(Cc4cccs4)C3)c2n1`, the MDR1-MDCK efflux ratio worked out at 22.3; the intrinsic clearance, human liver microsomes worked out at 32.1 mL/min/kg; the intrinsic clearance, rat liver microsomes was determined as 999 mL/min/kg; the aqueous solubility came to 49.1 µg/mL (≈ 132 µM).
Regarding `CC(C)(C)c1nc(O)c2nnn(C3CCNCC3)c2n1`, the intrinsic clearance, human liver microsomes was no more than 4.74 mL/min/kg and the intrinsic clearance, rat liver microsomes is no more than 10.7 mL/min/kg.
With `Clc1ccc(CSc2nc(-c3ccccc3)cs2)cn1`, the intrinsic clearance, human liver microsomes is 221 mL/min/kg and the intrinsic clearance, rat liver microsomes came out at 2260 mL/min/kg.
As to `O=C(c1cc(Oc2cccc(F)c2)nc2ccccc12)N1CCOCC1`, the aqueous solubility was determined as 16.1 µg/mL (≈ 45.7 µM).
For `O=C(NCCCn1ccnc1)N1CCC12CCC2`, the MDR1-MDCK efflux ratio came out at 30.5; the intrinsic clearance, human liver microsomes was no more than 4.74 mL/min/kg; the intrinsic clearance, rat liver microsomes worked out at 27.8 mL/min/kg; the aqueous solubility was determined as 41.1 µg/mL (≈ 166 µM).
As to `O=C(Cn1ccnc1)NCc1ccccc1F`, the intrinsic clearance, human liver microsomes is no more than 4.74 mL/min/kg; the intrinsic clearance, rat liver microsomes was no more than 10.7 mL/min/kg; the aqueous solubility came to 48.8 µg/mL (≈ 209 µM).
On to `O=C(CCc1ccc2c(c1)OCO2)Nc1cccc2cnccc12`, for which the MDR1-MDCK efflux ratio stood at 1.01; the intrinsic clearance, human liver microsomes stood at 41.9 mL/min/kg; the intrinsic clearance, rat liver microsomes stood at 300 mL/min/kg; the aqueous solubility was 44.7 µg/mL (≈ 140 µM).
Turning to `c1cc(-c2noc(CN3CCOCC3)n2)ccn1`, the MDR1-MDCK efflux ratio came to 0.732; the intrinsic clearance, human liver microsomes is no more than 4.74 mL/min/kg; the intrinsic clearance, rat liver microsomes is 29.8 mL/min/kg.
On to `CN1CCN(C2=c3ccccc3=Nc3ccc(Cl)cc3N2)CC1`, for which the MDR1-MDCK efflux ratio came out at 0.8 and the aqueous solubility amounted to 58.2 µg/mL (≈ 178 µM).
For `O=C(Nc1ccccc1)c1c([O-])n(-c2ccccc2)n[n+]1Cc1ccccc1`, in that order: 0.868 and 0.2 µg/mL (≈ 0.54 µM).
Consider `CCOc1ccc2c(c1)cc(CN1CCSCC1)c1nn(C)c(=O)n12`, for which the intrinsic clearance, human liver microsomes was determined as 88.1 mL/min/kg and the intrinsic clearance, rat liver microsomes was determined as 604 mL/min/kg.
With `Nc1nc(N)c2c(OCC3CCN(Cc4c(Cl)cccc4Cl)CC3)cccc2n1`, the MDR1-MDCK efflux ratio is 0.816 and the aqueous solubility was found to be 0.4 µg/mL (≈ 0.925 µM).
With `CN(C)C(=O)c1ccc(NC(=O)c2cccc(F)c2)cc1`, the MDR1-MDCK efflux ratio came out at 0.927; the intrinsic clearance, human liver microsomes was 9.98 mL/min/kg; the intrinsic clearance, rat liver microsomes amounted to 69.2 mL/min/kg; the aqueous solubility is 46.5 µg/mL (≈ 162 µM).
For `Cc1nc(CNC2CCN(C(=O)C3CC3)CC2)cs1`, in that order: 3.43, no more than 4.74 mL/min/kg, no more than 10.7 mL/min/kg and 42.6 µg/mL (≈ 152 µM).
Regarding `Cc1ccc2[nH]c(C3CN(C(=O)Cc4cccc5ccccc45)C3)nc2c1`, the MDR1-MDCK efflux ratio came to 15.2 and the aqueous solubility worked out at 0.3 µg/mL (≈ 0.844 µM).
As for `COCCOc1ccc(N2CCN(CCn3ncc4c3nc(N)n3nc(-c5ccco5)nc43)CC2)cc1`, the aqueous solubility was found to be 0.9 µg/mL (≈ 1.79 µM).
Regarding `Cc1ccsc1-c1nsc(NC(=O)CN(C)C)n1`, the MDR1-MDCK efflux ratio is 0.874; the intrinsic clearance, human liver microsomes is no more than 4.74 mL/min/kg; the intrinsic clearance, rat liver microsomes was 548 mL/min/kg.
